From patent EP3061750A1, “PYRAZOLE AMIDE COMPOUND CONTAINING DIPHENYL ETHER, AND APPLICATION THEREOF, AND PESTICIDE COMPOSITION” (Central China Normal University, priority 2013, dated 2015) come the findings set out here.

As a reminder, the IC50 is the concentration needed to halve the response being measured.

Where two headings read alike, the source gives them in different places.

One experiment has as its target T1, succinate dehydrogenase (Sus scrofa, UniProt A5GZW8+D0VWV4+Q007T0).
T1 construct: succinate dehydrogenase, which was isolated from pig hearts; from tissue; host or cells: pig heart
Kind of experiment: inhibitory activity on succinate dehydrogenase (DCIP reduction at 600 nm). Type of experiment: biochemical, pig. As to the method: This test was used to determine the inhibitory activity on the succinate dehydrogenase of the compounds prepared in Example 1, Preparation Examples 1 and 2 .
The enzyme used in the test example was succinate dehydrogenase, which was isolated from pig hearts.
Test Method: total volume was 1.8ml, the system comprised 100mM Na2HPO4-NaH2PO4 buffer (pH7.4), 0.3mM EDTA, 20mM sodium succinate, 53µM DCIP (2,6-dichloro indophenol sodium), 2nM succinate dehydrogenase. In water bath with 23 °C of constant temperature and 600rpm magnetic stirring, the reduction of the light absorption of substrate DCIP was monitored at a wavelength of 600nm, the experimental points within the linear range were collected, that is, the experimental points in which the consumption of substrate was controlled not exceeding 5% were collected. The molar extinction coefficient of DCIP was 21mM^-1cm^-1. The reduction amount of DCIP during the reaction time was calculated and linear slope was fitted, and then the initial velocity of the reaction was obtained by deducting the baseline slope.

For experiment [1], the system named is Rice sheath blight (Rhizoctonia solani). Kind of experiment: pot in vivo assay of bactericidal activity, rice sheath blight. From the text:
(§1) This test is used to determine the bactericidal activity of the compounds prepared in Example 1, Preparation Examples 1 and 2.
(§2) The targets used in the test example are rice sheath blight and cucumber powdery mildew.
Test Method: According to "Standard Practice for determination of pesticide biological activity (SOP)", pyrazole amide compound containing diphenyl ether was dispensed to 5% emulsifiable concentrates (hereinafter referred to as 5% EC), the […] method (pot in vivo assay). The screening results on the two test targets of the compounds prepared in Example 1, Preparation Examples 1 and 2 were shown in Table 4.
Rice sheath blight (Rhizoctonia solani)
Two potted rice seedlings with uniform growth in true leaf stage were chosen, and dried by air after spray treatment. The side of bacteria cake with mycelium was closely attached on the leaves, after cultured at 22-26 °C under dark light in a moisture preserving manner for 24h, then cultured with natural light for about 4 days. The diameter of disease spot of each inoculating point was measured by using a caliper after the control material was fully attacked by disease, and the control effect was calculated.
(§3) Investigation method and grading standard adopted "Guidelines for the field efficacy trials of pesticides", and the control effect was calculated with the disease index. The disease index = Σ(number of diseased leaves at each grade×relative grade value) × 100/(total number of leaves×9); [formula] Control effect (%) = (disease index of control−disease index of treated) × 100/disease index of control. [formula]

The test system of experiment [2] is Cucumber powdery mildew (Sphaerotheca uliginea). Kind of experiment: pot in vivo assay of bactericidal activity, cucumber powdery mildew.
Excerpt: as §1, §2
Test Method: According to "Standard Practice for determination of pesticide biological activity (SOP)", pyrazole amide compound containing diphenyl ether was dispensed to 5% emulsifiable concentrates (hereinafter referred to as 5% EC), […] method (pot in vivo assay). The screening results on the two test targets of the compounds prepared in Example 1, Preparation Examples 1 and 2 were shown in Table 4.
Cucumber powdery mildew (Sphaerotheca uliginea)
A cucumber seedling with uniform growth in true leaf stage was chosen, and dried in shade for 24h after spray treatment. Fresh cucumber powdery mildew spores on the cucumber leaves were collected and washed, and filtered through a double gauze to prepare a spore suspension with concentration of about 100,000 / ml, then spray inoculation was applied. The test materials inoculated were moved into artificial climate with relative humidity of 60-70% and temperature of 21-23 °C (indoor lighting), after about 10 days, investigating and grading were carried out according to the incidence of the blank control, and the control effect was calculated according to the disease index.
as §3

T1 sequence (Q007T0 29-280): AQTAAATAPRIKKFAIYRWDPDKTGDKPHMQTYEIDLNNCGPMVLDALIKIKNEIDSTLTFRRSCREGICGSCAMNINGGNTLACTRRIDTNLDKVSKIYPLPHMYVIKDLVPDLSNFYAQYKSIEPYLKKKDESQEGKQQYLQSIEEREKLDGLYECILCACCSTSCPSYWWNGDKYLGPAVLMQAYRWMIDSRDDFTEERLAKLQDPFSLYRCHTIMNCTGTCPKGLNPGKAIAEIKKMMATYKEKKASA
T1 sequence (D0VWV4 30-169): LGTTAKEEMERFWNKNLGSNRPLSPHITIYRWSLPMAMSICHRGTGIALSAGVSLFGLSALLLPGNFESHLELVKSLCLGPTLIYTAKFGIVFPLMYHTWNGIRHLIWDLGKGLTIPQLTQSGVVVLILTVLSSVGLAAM
T1 sequence (A5GZW8 57-159 limits assumed): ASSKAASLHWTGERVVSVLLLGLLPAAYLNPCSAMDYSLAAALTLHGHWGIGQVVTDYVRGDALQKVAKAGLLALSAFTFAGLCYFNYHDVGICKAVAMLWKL
T1 sequence (Q0QF01 43-664 partner): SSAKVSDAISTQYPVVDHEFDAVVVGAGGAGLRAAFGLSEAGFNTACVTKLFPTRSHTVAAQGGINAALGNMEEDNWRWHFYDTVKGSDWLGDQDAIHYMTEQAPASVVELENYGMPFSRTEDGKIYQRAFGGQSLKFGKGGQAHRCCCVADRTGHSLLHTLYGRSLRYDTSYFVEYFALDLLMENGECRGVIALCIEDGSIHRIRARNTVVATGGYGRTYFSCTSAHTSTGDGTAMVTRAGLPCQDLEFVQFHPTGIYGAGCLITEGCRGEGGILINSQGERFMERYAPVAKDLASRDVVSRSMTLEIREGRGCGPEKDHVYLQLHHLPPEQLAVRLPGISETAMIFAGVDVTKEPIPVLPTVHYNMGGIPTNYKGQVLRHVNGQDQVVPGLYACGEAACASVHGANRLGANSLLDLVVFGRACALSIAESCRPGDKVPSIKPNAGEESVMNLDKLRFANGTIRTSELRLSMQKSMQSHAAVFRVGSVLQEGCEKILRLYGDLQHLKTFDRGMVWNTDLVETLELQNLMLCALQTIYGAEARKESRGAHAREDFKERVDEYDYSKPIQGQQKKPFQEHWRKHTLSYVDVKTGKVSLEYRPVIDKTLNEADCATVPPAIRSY

At succinate dehydrogenase, `Cc1cc(C)cc(Oc2ccccc2NC(=O)c2cn(C)nc2C(F)F)c1` [III-16] had an IC50 of 2.03 ± 1.22 µM. The pest or weed control at 200 µg/mL in experiment [1] (Rhizoctonia solani, read-out: Efficacy(%) rice sheath blight) was 50%; in experiment [2] (Cucumis sativus, read-out: Efficacy(%) cucumber powery mildew), 0%.

For `Cc1nc(C(F)(F)F)c(C(=O)Nc2c(Br)cc(OC(F)(F)F)cc2Br)s1` [Thifluzamide, reference compound], the inhibition at 0.03 µM at succinate dehydrogenase (concentration 0.03 µM, read-out: inhibition ratio(%)) worked out at 0%. The inhibition at 0.05 µM on succinate dehydrogenase (concentration 0.05 µM, read-out: inhibition ratio(%)) was found to be 9.21%. Further, the inhibition at 0.1 µM at succinate dehydrogenase (concentration 0.1 µM, read-out: inhibition ratio(%)) was 29.7%. Besides, the inhibition at 0.2 µM at succinate dehydrogenase (concentration 0.2 µM, read-out: inhibition ratio(%)) was 47.6%. Further, the inhibition at 0.3 µM on succinate dehydrogenase (concentration 0.3 µM, read-out: inhibition ratio(%)) is 59.5%. Also, the inhibition at 0.5 µM on succinate dehydrogenase (concentration 0.5 µM, read-out: inhibition ratio(%)) was determined as 71.7%. On succinate dehydrogenase (concentration 1 µM, read-out: inhibition ratio(%)), the inhibition at 1 µM came to 77.9%. Also, on succinate dehydrogenase (concentration 10 µM, read-out: inhibition ratio(%)), the inhibition at 10 µM was found to be 94.5%. Besides, the inhibition at 50 µM at succinate dehydrogenase (concentration 50 µM, read-out: inhibition ratio(%)) is 96.7%. In addition, the IC50 at succinate dehydrogenase (succinate dehydrogenase isolated from pig hearts, pH7.4, 23 °C, read-out: IC50) came out at 0.2 ± 0.0121 µM. The “efficacy on rice sheath bilght(%)” value in experiment [1] (concentration 1.5 mg/L) worked out at 0%; in experiment [1] (concentration 3.25 mg/L) it was 13.38%; in experiment [1] (concentration 6.25 mg/L) it was 54.30%; in experiment [1] (concentration 12.5 mg/L), 61.36%; in experiment [1] (concentration 25 mg/L), 81.85%; in experiment [1] (concentration 50 mg/L), 100%. Further, the “efficacy on rice sheath bilght(%)” value in experiment [1] (concentration 100 mg/L) worked out at 100%. Moreover, the “efficacy on cucumber powery mildew(%)” value was 0% in experiment [2] (concentration 12.5 mg/L), 22.22% in experiment [2] (concentration 25 mg/L), 62.96% in experiment [2] (concentration 50 mg/L) and 100% in experiment [2] (concentration 100 mg/L).
